Target: USP7 (Homo sapiens, UniProt Q93009)
Test: biochemical
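Note: fluorescence intensity readout of USP7 enzymatic activity, reaction incubated 90 min at room temperature.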

Sequence of USP7 (Q93009 whole entry): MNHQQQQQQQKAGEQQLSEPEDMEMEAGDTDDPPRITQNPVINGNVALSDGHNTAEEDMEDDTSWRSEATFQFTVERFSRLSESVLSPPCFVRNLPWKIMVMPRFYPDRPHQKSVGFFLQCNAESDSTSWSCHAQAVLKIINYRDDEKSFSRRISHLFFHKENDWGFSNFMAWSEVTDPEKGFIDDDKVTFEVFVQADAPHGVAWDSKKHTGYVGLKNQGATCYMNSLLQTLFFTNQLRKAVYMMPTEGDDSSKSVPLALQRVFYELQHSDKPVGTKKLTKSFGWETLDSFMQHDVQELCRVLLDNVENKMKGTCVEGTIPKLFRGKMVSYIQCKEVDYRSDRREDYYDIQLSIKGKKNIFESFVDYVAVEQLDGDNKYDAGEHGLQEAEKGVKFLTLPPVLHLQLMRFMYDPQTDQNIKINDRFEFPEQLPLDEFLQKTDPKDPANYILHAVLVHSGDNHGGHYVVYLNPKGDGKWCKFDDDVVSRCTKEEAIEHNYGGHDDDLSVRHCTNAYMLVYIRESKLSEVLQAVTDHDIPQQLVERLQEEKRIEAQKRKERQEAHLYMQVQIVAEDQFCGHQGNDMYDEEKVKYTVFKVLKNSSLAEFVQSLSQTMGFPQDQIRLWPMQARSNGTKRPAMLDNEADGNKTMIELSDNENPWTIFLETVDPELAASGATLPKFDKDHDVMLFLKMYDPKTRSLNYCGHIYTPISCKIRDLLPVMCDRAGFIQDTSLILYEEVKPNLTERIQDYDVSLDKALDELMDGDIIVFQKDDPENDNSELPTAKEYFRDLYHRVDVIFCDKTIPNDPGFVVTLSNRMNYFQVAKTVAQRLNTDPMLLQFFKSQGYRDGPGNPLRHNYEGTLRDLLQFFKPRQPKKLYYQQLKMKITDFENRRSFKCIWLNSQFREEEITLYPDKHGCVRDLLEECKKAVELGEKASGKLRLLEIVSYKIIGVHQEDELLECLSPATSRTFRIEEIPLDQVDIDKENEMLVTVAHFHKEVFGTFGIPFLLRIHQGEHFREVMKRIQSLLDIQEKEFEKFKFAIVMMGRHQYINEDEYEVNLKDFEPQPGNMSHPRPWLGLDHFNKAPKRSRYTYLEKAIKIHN

| Structure (SMILES) | IC50 [nM] |
| --- | --- |
| O=C1CCC(=O)N1Cc1cc2nccc(-c3cc(Cl)cc4c3N([C@@H]3CN(CCc5nnn[nH]5)C5(CCC5)C3)CCC4)c2s1 [Example 144, (S)-1-((7-(1-(5-(2-(1H-tetrazol-5-yl)ethyl)-5-azaspiro[3.4]octan-7-yl)-6-chloro-1,2,3,4-tetrahydroquinolin-8-yl)thieno[3,2-b]pyridin-2-yl)methyl)pyrrolidine-2,5-dione] | 10 to 100 |
| O=C1C2CC2C(=O)N1Cc1cc2nccc(-c3cc(Cl)cc4c3N([C@@H]3CNC5(CCC5)C3)CCC4)c2s1 (stereo partly drawn) [Example 145, 3-((7-(6-chloro-1-((S)-5-azaspiro[3.4]octan-7-yl)-1,2,3,4-tetrahydroquinolin-8-yl)thieno[3,2-b]pyridin-2-yl)methyl)-3-azabicyclo[3.1.0]hexane-2,4-dione] | < 10 |
| O=c1ccn(C2CC(F)(F)C2)c(=O)n1Cc1cc2nccc(-c3cc(Cl)cc4c3N([C@@H]3CNC5(CCC5)C3)CCC4)c2s1 [Example 146, (S)-3-((7-(6-chloro-1-(5-azaspiro[3.4]octan-7-yl)-1,2,3,4-tetrahydroquinolin-8-yl)thieno[3,2-b]pyridin-2-yl)methyl)-1-(3,3-difluorocyclobutyl)pyrimidine-2,4(1H,3H)-dione] | < 10 |
| CC1(C)C2C(=O)N(Cc3cc4nccc(-c5cc(Cl)cc6c5N([C@@H]5CNC7(CCC7)C5)CCC6)c4s3)C(=O)C21 (stereo partly drawn) [Example 147, 3-((7-(6-chloro-1-((S)-5-azaspiro[3.4]octan-7-yl)-1,2,3,4-tetrahydroquinolin-8-yl)thieno[3,2-b]pyridin-2-yl)methyl)-6,6-dimethyl-3-azabicyclo[3.1.0]hexane-2,4-dione] | 10 to 100 |
| O=c1ccn(C2CC2)c(=O)n1Cc1cc2nccc(-c3cc(Cl)cc4c3N([C@@H]3CNC5(CCC5)C3)CCC4)c2s1 [Example 148, (S)-3-((7-(6-chloro-1-(5-azaspiro[3.4]octan-7-yl)-1,2,3,4-tetrahydroquinolin-8-yl)thieno[3,2-b]pyridin-2-yl)methyl)-1-cyclopropylpyrimidine-2,4(1H,3H)-dione] | < 10 |
| O=c1ccn(C(F)F)c(=O)n1Cc1cc2nccc(-c3cc(Cl)cc4c3N([C@@H]3CNC5(CCC5)C3)CCC4)c2s1 [Example 149, (S)-3-((7-(6-chloro-1-(5-azaspiro[3.4]octan-7-yl)-1,2,3,4-tetrahydroquinolin-8-yl)thieno[3,2-b]pyridin-2-yl)methyl)-1-(difluoromethyl)pyrimidine-2,4(1H,3H)-dione] | < 10 |
| CN1CC(=O)N(Cc2cc3nccc(-c4cc(Cl)cc5c4N([C@@H]4CNC6(CCC6)C4)CCC5)c3s2)C1=O [Example 150, (S)-3-((7-(6-chloro-1-(5-azaspiro[3.4]octan-7-yl)-1,2,3,4-tetrahydroquinolin-8-yl)thieno[3,2-b]pyridin-2-yl)methyl)-1-methylimidazolidine-2,4-dione] | < 10 |
| O=C1COC(=O)N1Cc1cc2nccc(-c3cc(Cl)cc4c3N([C@@H]3CNC5(CCC5)C3)CCC4)c2s1 [Example 151, (S)-3-((7-(6-chloro-1-(5-azaspiro[3.4]octan-7-yl)-1,2,3,4-tetrahydroquinolin-8-yl)thieno[3,2-b]pyridin-2-yl)methyl)oxazolidine-2,4-dione] | < 10 |
| CC1(C)OC(=O)N(Cc2cc3nccc(-c4cc(Cl)cc5c4N([C@@H]4CNC6(CCC6)C4)CCC5)c3s2)C1=O [Example 152, (S)-3-((7-(6-chloro-1-(5-azaspiro[3.4]octan-7-yl)-1,2,3,4-tetrahydroquinolin-8-yl)thieno[3,2-b]pyridin-2-yl)methyl)-5,5-dimethyloxazolidine-2,4-dione] | 10 to 100 |
| Cc1cnn(Cc2cc3nccc(-c4cc(Cl)cc5c4N([C@@H]4CNC6(CCC6)C4)CCC5)c3s2)c(=O)c1 [Example 153, (S)-2-((7-(6-chloro-1-(5-azaspiro[3.4]octan-7-yl)-1,2,3,4-tetrahydroquinolin-8-yl)thieno[3,2-b]pyridin-2-yl)methyl)-5-methylpyridazin-3(2H)-one] | < 10 |
| O=c1cc(CC(F)(F)F)cnn1Cc1cc2nccc(-c3cc(Cl)cc4c3N([C@@H]3CNC5(CCC5)C3)CCC4)c2s1 [Example 154, (S)-2-((7-(6-chloro-1-(5-azaspiro[3.4]octan-7-yl)-1,2,3,4-tetrahydroquinolin-8-yl)thieno[3,2-b]pyridin-2-yl)methyl)-5-(2,2,2-trifluoroethyl)pyridazin-3(2H)-one] | < 10 |
| O=C1[C@@H]2[C@H]3CC[C@H](C3)[C@@H]2C(=O)N1Cc1cc2nccc(-c3cc(Cl)cc4c3N([C@@H]3CNC5(CCC5)C3)CCC4)c2s1 [Example 155, (3aR,4S,7R,7aS)-2-((7-(6-chloro-1-((S)-5-azaspiro[3.4]octan-7-yl)-1,2,3,4-tetrahydroquinolin-8-yl)thieno[3,2-b]pyridin-2-yl)methyl)hexahydro-1H-4,7-methanoisoindole-1,3(2H)-dione] | 10 to 100 |
| CC1(C)OC(=O)C(Cc2cc3nccc(-c4cc(Cl)cc5c4N([C@@H]4CNC6(CCC6)C4)CCC5)c3s2)C(=O)O1 [Example 156, (S)-5-((7-(6-chloro-1-(5-azaspiro[3.4]octan-7-yl)-1,2,3,4-tetrahydroquinolin-8-yl)thieno[3,2-b]pyridin-2-yl)methyl)-2,2-dimethyl-1,3-dioxane-4,6-dione] | 101 to 1000 |
| O=C1OC[C@@H](C(F)(F)F)N1Cc1cc2nccc(-c3cc(Cl)cc4c3N([C@@H]3CNC5(CCC5)C3)CCC4)c2s1 [Example 157, (S)-3-((7-(6-chloro-1-((S)-5-azaspiro[3.4]octan-7-yl)-1,2,3,4-tetrahydroquinolin-8-yl)thieno[3,2-b]pyridin-2-yl)methyl)-4-(trifluoromethyl)oxazolidin-2-one] | 10 to 100 |
| O=C1OC[C@H](C(F)(F)F)N1Cc1cc2nccc(-c3cc(Cl)cc4c3N([C@@H]3CNC5(CCC5)C3)CCC4)c2s1 [Example 158, (R)-3-((7-(6-chloro-1-((S)-5-azaspiro[3.4]octan-7-yl)-1,2,3,4-tetrahydroquinolin-8-yl)thieno[3,2-b]pyridin-2-yl)methyl)-4-(trifluoromethyl)oxazolidin-2-one] | < 10 |

The next lines start with the values.

| IC50 [nM] | Structure (SMILES) |
| --- | --- |
| < 10 | O=C1CN(C2CC(F)(F)C2)C(=O)N1Cc1cc2nccc(-c3cc(Cl)cc4c3N([C@@H]3CNC5(CCC5)C3)CCC4)c2s1 [Example 159, (S)-3-((7-(6-chloro-1-(5-azaspiro[3.4]octan-7-yl)-1,2,3,4-tetrahydroquinolin-8-yl)thieno[3,2-b]pyridin-2-yl)methyl)-1-(3,3-difluorocyclobutyl)imidazolidine-2,4-dione] |
| < 10 | O=C1CCC(=O)N1Cc1cc2nccc(-c3cc(C(F)(F)F)cc4c3N([C@@H]3CNC5(CCC5)C3)CCC4)c2s1 [Example 163, (S)-1-((7-(1-(5-azaspiro[3.4]octan-7-yl)-6-(trifluoromethyl)-1,2,3,4-tetrahydroquinolin-8-yl)thieno[3,2-b]pyridin-2-yl)methyl)pyrrolidine-2,5-dione] |
| 10 to 100 | O=C1CCC(=O)N1Cc1cc2nccc(-c3cc(Cl)cc4c3N([C@@H]3CNC5(CCC5)C3)C[C@@H]3C[C@H]43)c2s1 [Example 165a, 1-((7-((1aR,7bS)-6-chloro-3-((S)-5-azaspiro[3.4]octan-7-yl)-1a,2,3,7b-tetrahydro-1H-cyclopropa[c]quinolin-4-yl)thieno[3,2-b]pyridin-2-yl)methyl)pyrrolidine-2,5-dione] |
| 101 to 1000 | O=C1CCC(=O)N1Cc1cc2nccc(-c3cc(Cl)cc4c3N([C@H]3CNC5(CCC5)C3)C[C@@H]3C[C@H]43)c2s1 [Example 165b, 1-((7-((1aR,7bS)-6-chloro-3-((R)-5-azaspiro[3.4]octan-7-yl)-1a,2,3,7b-tetrahydro-1H-cyclopropa[c]quinolin-4-yl)thieno[3,2-b]pyridin-2-yl)methyl)pyrrolidine-2,5-dione] |
| < 10 | O=C1CCC(=O)N1Cc1cc2nccc(-c3cc(Cl)cc4c3N([C@@H]3CNC5(CCC5)C3)C[C@H]3C[C@@H]43)c2s1 [Example 165c, 1-((7-((1aS,7bR)-6-chloro-3-((S)-5-azaspiro[3.4]octan-7-yl)-1a,2,3,7b-tetrahydro-1H-cyclopropa[c]quinolin-4-yl)thieno[3,2-b]pyridin-2-yl)methyl)pyrrolidine-2,5-dione] |
| < 10 | Cc1cnn(Cc2cc3nccc(-c4cc(Cl)cc5c4N([C@@H]4CNC6(CCC6)C4)C[C@H]4C[C@@H]54)c3s2)c(=O)c1 [Example 166, 2-((7-((1aS,7bR)-6-chloro-3-((S)-5-azaspiro[3.4]octan-7-yl)-1a,2,3,7b-tetrahydro-1H-cyclopropa[c]quinolin-4-yl)thieno[3,2-b]pyridin-2-yl)methyl)-5-methylpyridazin-3(2H)-one] |
| < 10 | O=C1CCC(=O)N1Cc1cc2ncnc(-c3cc(Cl)cc4c3N([C@@H]3CNC5(CCC5)C3)C[C@H]3C[C@@H]43)c2s1 [Example 167a, 1-((4-((1aS,7bR)-6-chloro-3-((S)-5-azaspiro[3.4]octan-7-yl)-1a,2,3,7b-tetrahydro-1H-cyclopropa[c]quinolin-4-yl)thieno[3,2-d]pyrimidin-6-yl)methyl)pyrrolidine-2,5-dione] |
| > 1000 | O=C1CCC(=O)N1Cc1cc2ncnc(-c3cc(Cl)cc4c3N([C@H]3CNC5(CCC5)C3)C[C@H]3C[C@@H]43)c2s1 [Example 167b, 1-((4-((1aS,7bR)-6-chloro-3-((R)-5-azaspiro[3.4]octan-7-yl)-1a,2,3,7b-tetrahydro-1H-cyclopropa[c]quinolin-4-yl)thieno[3,2-d]pyrimidin-6-yl)methyl)pyrrolidine-2,5-dione] |
| 10 to 100 | O=C1CCC(=O)N1Cc1cc2ncnc(-c3cc(Cl)cc4c3N([C@H]3CNC5(CCC5)C3)C[C@@H]3C[C@H]43)c2s1 [Example 167c, 1-((4-((1aR,7bS)-6-chloro-3-((R)-5-azaspiro[3.4]octan-7-yl)-1a,2,3,7b-tetrahydro-1H-cyclopropa[c]quinolin-4-yl)thieno[3,2-d]pyrimidin-6-yl)methyl)pyrrolidine-2,5-dione] |
| < 10 | N#Cc1cc(-c2ccnc3cc(CN4C(=O)CCC4=O)sc23)c2c(c1)[C@@H]1C[C@@H]1CN2[C@@H]1CNC2(CCC2)C1 [Example 168, (1aS,7bR)-4-(2-((2,5-dioxopyrrolidin-1-yl)methyl)thieno[3,2-b]pyridin-7-yl)-3-((S)-5-azaspiro[3.4]octan-7-yl)-1a,2,3,7b-tetrahydro-1H-cyclopropa[c]quinoline-6-carbonitrile] |

— patent US20240158412A1 (Faxian Therapeutics, LLC, priority 2021, published 2024)
